Test: Hot solution temperature: homogeneous solution of active with excipient or second active
Type: physicochemical
Procedure: Numerous materials may act to form solutions of agrochemicals at elevated temperature. The solubility of MCPA, 2,4-D) and mecoprop with a range of common excipients was assessed at elevated temperature. To establish the melting behaviour of the individual actives, each active (1.25 g) was weighed into a 40 mL vial and heated gradually using a hotplate and Asynt heating insert until full melted, and the melting range was noted. […] To establish hot solvent behaviour, a range of excipients were weighed into 40 mL vials (0.676 g) with each chosen active (1.25 g). The mixtures were then heated gradually until a fully homogeneous solution was observed and the temperature was noted as described above. Additionally, the potential for agrochemicals to act as solvents for a second agrochemical at elevated temperature was also studied by combining the active ingredients in a ratio of 1.85:1 active:active ‘solvent’ following the same procedure as described above. For example, in a mixture where the first active was MCPA (1.25 g) and the second was mecoprop (0.676 g) both actives were added to a 40 mL vial and heated following the procedure detailed above. Where a homogeneous phase is observed below the measured melting point of the study active ingredient, a hot solution is considered to have been formed and the excipient is deemed to act as a solvent at elevated temperature.
Where the “solvent” is listed as “None”, the temperature stated represents the formation of a homogeneous melt.

O=C(O)COc1ccc(Cl)cc1Cl [2,4-D, 2,4-dichlorophenoxyacetic acid]
Solution temp range (° C.) (2nd active Dichloroprop-P as solvent, ratio 1.85:1): 130-132 °C
Solution temp range (° C.) (2nd active MCPA as solvent, ratio 1.85:1): 140-142 °C
Solution temp range (° C.) (2nd active Mecoprop as solvent, ratio 1.85:1 active:active solvent): 130-131 °C
temperature range where homogeneous solutions formed (° C.) (solvent 1,2-Propanediol): 110-112 °C
temperature range where homogeneous solutions formed (° C.) (solvent Altox 4894): 121-125 °C
temperature range where homogeneous solutions formed (° C.) (solvent Altox 4912): 138-140 °C
temperature range where homogeneous solutions formed (° C.) (solvent Altox 4913): 116-120 °C
temperature range where homogeneous solutions formed (° C.) (solvent Atlas G5000): 129-131 °C
temperature range where homogeneous solutions formed (° C.) (solvent Atlox 4915): 134-137 °C
temperature range where homogeneous solutions formed (° C.) (solvent Atlox 4916): 140-141 °C
temperature range where homogeneous solutions formed (° C.) (solvent Atplus 245): 123-126 °C
temperature range where homogeneous solutions formed (° C.) (solvent Atplus PFA): 127-130 °C
temperature range where homogeneous solutions formed (° C.) (solvent Atplus UEP): 132-135 °C
temperature range where homogeneous solutions formed (° C.) (solvent Crodamol AB): 136-138 °C
temperature range where homogeneous solutions formed (° C.) (solvent Crodamol GTCC): 138-140 °C
temperature range where homogeneous solutions formed (° C.) (solvent Dipropylene glycol dimethyl ether): 114-116 °C
temperature range where homogeneous solutions formed (° C.) (solvent Genapol X020): 118-121 °C
temperature range where homogeneous solutions formed (° C.) (solvent Genapol X050): 120-123 °C
temperature range where homogeneous solutions formed (° C.) (solvent Genapol X060): 118-122 °C
temperature range where homogeneous solutions formed (° C.) (solvent Genapol X080): 118-121 °C
temperature range where homogeneous solutions formed (° C.) (solvent Glycerol, 1.25 g active, 0.676 g excipient): 116-118 °C
temperature range where homogeneous solutions formed (° C.) (solvent Multiwet MO85): 140-143 °C
temperature range where homogeneous solutions formed (° C.) (solvent PEG 400): 122-123 °C
temperature range where homogeneous solutions formed (° C.) (solvent PEG 1000): 124-126 °C
temperature range where homogeneous solutions formed (° C.) (solvent PEG 4000): 134-136 °C
temperature range where homogeneous solutions formed (° C.) (solvent Pluronic F68): 137-140 °C
temperature range where homogeneous solutions formed (° C.) (solvent Pluronic F127): 137-140 °C
temperature range where homogeneous solutions formed (° C.) (solvent Propylene glycol): 110-112 °C
temperature range where homogeneous solutions formed (° C.) (solvent Synperonic PE/L31): 129-130 °C
temperature range where homogeneous solutions formed (° C.) (solvent Synperonic PE/L64): 132-135 °C
temperature range where homogeneous solutions formed (° C.) (solvent Synprolam 35X15): 123-126 °C
temperature range where homogeneous solutions formed (° C.) (solvent Tween 22): 120-124 °C
temperature range where homogeneous solutions formed (° C.) (solvent Tween 23): 120-124 °C
temperature range where homogeneous solutions formed (° C.) (solvent Tween 24): 120-124 °C

From patent US20250344693A1, “HERBICIDE SUSPENSION CONCENTRATES AND METHOD FOR THEIR PREPARATION” (NUFARM AUSTRALIA LIMITED, priority 2022, published 2025)
